Some test systems named below: LOX IMVI; OVCAR-5; SNB-75; SW-620; MDA-MB-435; HT-29; M14; ACHN; CAKI-1; MDA-MB-231; UO-31; OVCAR-4; HCT-116; SF-268; SK-MEL-5; SF-295; SNB-19; HCC 2998; NCI-H226; NCI-H460.
Assay in all cases: NCI tumour cell line growth inhibition, 48 h

The values below come from ChEMBL document CHEMBL1201862, “PubChem BioAssay data set” (2004).

The structures appear in SMILES notation.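 The compound was tested at five concentrations on cells cultured in 96-well plates, with a 48-hour exposure period. GI50: concentration for 50% inhibition of growth.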 Active and inactive are the calls of the source. Rule as the data show it: active = GI50 up to about 1.1 µM and inactive = higher. Where a SMILES comes first, the peptide text is derived from it. [ ]: non-standard residue; d: D form. 2Nal = N[CH](Cc1ccc2ccccc2c1)C(=O)O Some results are limits rather than exact numbers.

`COC(=O)CN1Cc2cc(C)cc(c2O)CN(CC(=O)OC)Cc2cc(C)cc(c2O)CN(CC(=O)OC)Cc2cc(C)cc(c2O)C1`: the GI50 in the assay with LOX IMVI is > 65.8 µM (inactive); in the assay with OVCAR-5, 26.4 µM (inactive); in the assay on SNB-75, > 33.4 µM (inactive); in the assay with SW-620 it was > 87.3 µM (inactive); in the assay with MDA-MB-435, > 100 µM (inactive); in the assay on HT-29, > 47.9 µM (inactive). For the same compound, the GI50 with M14 was > 37.8 µM (inactive); in the assay on ACHN, > 47.1 µM (inactive); with CAKI-1 it was > 100 µM (inactive); in the assay on MDA-MB-231, > 36.8 µM (inactive); in the assay on UO-31, > 44 µM (inactive); in the assay with OVCAR-4, > 100 µM (inactive). For the same compound, the GI50 in the assay with HCT-116 is 12.6 µM (inactive); with SF-268, > 100 µM (inactive); with SK-MEL-5, > 57.5 µM (inactive); with SF-295, > 61.8 µM (inactive); in the assay on SNB-19, > 100 µM (inactive); in the assay with HCC 2998, 2.03 µM (inactive). Besides, the GI50 with NCI-H226 is > 37.4 µM (inactive); in the assay with NCI-H460 it was 0.272 µM (active).

With `CC(C)C[C@H](NC(=O)CCc1cccc2ccccc12)B(O)O`, the GI50 in the assay with LOX IMVI was 0.461 µM (active); with OVCAR-5 it was 0.908 µM (active); in the assay with SNB-75, 7.98 µM (inactive); in the assay on SW-620 it was 0.676 µM (active); in the assay on MDA-MB-435 it was 0.31 µM (active); with HT-29, 0.628 µM (active). Besides, the GI50 is 0.942 µM (active) in the assay on M14; 0.498 µM (active) in the assay on ACHN; 0.368 µM (active) in the assay on CAKI-1; 2.25 µM (inactive) with MDA-MB-231; 1.94 µM (inactive) in the assay with UO-31; 4.56 µM (inactive) with OVCAR-4. Besides, the GI50 was 0.473 µM (active) in the assay with HCT-116; 1.32 µM (inactive) in the assay with SF-268; 0.457 µM (active) in the assay with SK-MEL-5; 1.74 µM (inactive) in the assay on SF-295; 5.43 µM (inactive) in the assay on SNB-19; 0.64 µM (active) in the assay on HCC 2998. Moreover, the GI50 in the assay with NCI-H226 is 0.161 µM (active); in the assay with NCI-H460 it was 3.21 µM (inactive).

With `COc1cc(S(=O)(=O)Nc2nc(-c3ccc(/N=C/c4ccccc4O)cc3)cs2)ccc1Cl`, the GI50 in the assay with LOX IMVI is 47 µM (inactive); with OVCAR-5 it was > 100 µM (inactive); in the assay with SNB-75, 51.1 µM (inactive); in the assay with SW-620 it was 79.8 µM (inactive); in the assay with MDA-MB-435, 54.5 µM (inactive); in the assay on HT-29, 44 µM (inactive). In addition, the GI50 in the assay on M14 is 30.1 µM (inactive); with ACHN, 41.7 µM (inactive); in the assay with CAKI-1, 60.4 µM (inactive); in the assay on MDA-MB-231 it was 36.5 µM (inactive); with UO-31, 44.2 µM (inactive); in the assay with OVCAR-4, 45.6 µM (inactive). In addition, the GI50 with HCT-116 was 29.4 µM (inactive); in the assay with SF-268, 32 µM (inactive); with SK-MEL-5, 26 µM (inactive); with SF-295 it was 36 µM (inactive); in the assay with SNB-19, 34.2 µM (inactive); in the assay on HCC 2998 it was 45.5 µM (inactive). Further, the GI50 with NCI-H226 was 44.2 µM (inactive); with NCI-H460 it was 35.3 µM (inactive).

Turning to `NC1=Nc2ccccc2Sc2cccc(F)c21`, the GI50 in the assay on LOX IMVI was 99.5 µM (inactive); in the assay on OVCAR-5, > 100 µM (inactive); in the assay on SNB-75, 46.5 µM (inactive); with SW-620, > 100 µM (inactive); in the assay on MDA-MB-435 it was 74 µM (inactive); with HT-29, > 100 µM (inactive). For the same compound, the GI50 in the assay on M14 is 50.9 µM (inactive); with ACHN it was > 100 µM (inactive); in the assay with CAKI-1, > 100 µM (inactive); in the assay on MDA-MB-231 it was > 100 µM (inactive); with UO-31, 84.5 µM (inactive); in the assay on OVCAR-4, 58.3 µM (inactive). Further, the GI50 is 29.1 µM (inactive) with HCT-116; > 100 µM (inactive) in the assay with SF-268; 38 µM (inactive) in the assay with SK-MEL-5; 40.4 µM (inactive) with SF-295; > 100 µM (inactive) in the assay with SNB-19; > 100 µM (inactive) with HCC 2998. Besides, the GI50 in the assay on NCI-H226 is 66.5 µM (inactive); in the assay on NCI-H460 it was > 100 µM (inactive).

On to `CC(C)(C)C1CC[C@H](O)[C@H]([C@H](O)CC2CC(=O)N(c3ccccc3)C(=O)C2)C1` (stereo not given in full), for which the GI50 with LOX IMVI, with OVCAR-5, in the assay with SNB-75, in the assay with SW-620, in the assay on MDA-MB-435 and in the assay with HT-29 was > 100 µM (inactive) in each case. In addition, the GI50 in the assay on M14, with ACHN, in the assay on CAKI-1, in the assay on MDA-MB-231, with UO-31 and in the assay with OVCAR-4 was > 100 µM (inactive) each time. Further, the GI50 with HCT-116 is > 100 µM (inactive); in the assay with SF-268 it was > 100 µM (inactive); in the assay with SK-MEL-5, > 100 µM (inactive); in the assay on SF-295, 63.7 µM (inactive); in the assay on SNB-19, > 100 µM (inactive); in the assay with HCC 2998, > 100 µM (inactive). In addition, the GI50 in the assay on NCI-H226 is > 100 µM (inactive); in the assay on NCI-H460, 95.9 µM (inactive).

As to `COC(=O)C1=C(C(=O)OC)C2(C)CCC(=O)C1O2` (stereo not given), the GI50 with LOX IMVI was > 10 µM (inactive); in the assay with OVCAR-5 it was > 10 µM (inactive); with SNB-75 it was 2.7 µM (inactive); in the assay with SW-620, > 10 µM (inactive); with MDA-MB-435, > 10 µM (inactive); in the assay on HT-29, > 10 µM (inactive). The GI50 with M14, in the assay on ACHN, with CAKI-1, in the assay on MDA-MB-231, in the assay on UO-31 and in the assay with OVCAR-4 was > 10 µM (inactive) in each case. Also, the GI50 with HCT-116, in the assay on SF-268, in the assay on SK-MEL-5, with SF-295, in the assay on SNB-19 and in the assay with HCC 2998 was > 10 µM (inactive) each time. For the same compound, the GI50 in the assay with NCI-H226 and with NCI-H460 was > 10 µM (inactive) in each case.

As to `CC1(C)CCC2(C(=O)OC3OC(CO)C(O)C(O)C3O)CCC3(C)C(=CCC4C5(C)CCC(OC6OC(CO)C(O)C(O)C6O)C(C)(C)C5CCC43C)C2C1` (stereo not given), the GI50 was 4.51 µM (inactive) in the assay with LOX IMVI; 24.1 µM (inactive) with OVCAR-5; 11.2 µM (inactive) in the assay with SNB-75; 8.83 µM (inactive) in the assay with SW-620; 7.16 µM (inactive) in the assay with MDA-MB-435; 9.46 µM (inactive) in the assay with HT-29. For the same compound, the GI50 with M14 was 14.8 µM (inactive); with ACHN, > 25 µM (inactive); with CAKI-1, > 25 µM (inactive); with MDA-MB-231 it was 9.98 µM (inactive); in the assay with UO-31, > 25 µM (inactive); in the assay on OVCAR-4, 11.8 µM (inactive). The GI50 in the assay with HCT-116 was 8.61 µM (inactive); with SF-268 it was 6.93 µM (inactive); in the assay with SK-MEL-5 it was 9.57 µM (inactive); with SF-295 it was 15.2 µM (inactive); in the assay with SNB-19, 8.32 µM (inactive); with HCC 2998 it was 4.01 µM (inactive). Moreover, the GI50 in the assay on NCI-H226 is 10.5 µM (inactive); in the assay on NCI-H460, 6.59 µM (inactive).

For the compound `N#CC1=C(C#N)/C(=C(\C#N)C(C#N)C#N)N=C1N`, the GI50 in the assay on LOX IMVI is 19.1 µM (inactive); with OVCAR-5, 33.5 µM (inactive); in the assay with SNB-75, 41.8 µM (inactive); in the assay with SW-620 it was 28.5 µM (inactive); with MDA-MB-435 it was 16.9 µM (inactive); in the assay on HT-29 it was 23.5 µM (inactive). For the same compound, the GI50 with M14 was 15.6 µM (inactive); in the assay with ACHN it was 33.3 µM (inactive); in the assay with CAKI-1 it was 46.2 µM (inactive); in the assay on MDA-MB-231 it was 91.4 µM (inactive); with UO-31, 35.5 µM (inactive); with OVCAR-4 it was 28.2 µM (inactive). In addition, the GI50 is 27.4 µM (inactive) in the assay with HCT-116; 32.7 µM (inactive) in the assay on SF-268; 17.3 µM (inactive) with SK-MEL-5; 31.2 µM (inactive) in the assay with SF-295; 51.9 µM (inactive) in the assay on SNB-19; 33.4 µM (inactive) with HCC 2998. For the same compound, the GI50 is 30 µM (inactive) in the assay on NCI-H226 and 28.6 µM (inactive) with NCI-H460.

Consider `CC(NC(=O)C(N)Cc1ccccc1)C(=O)NC(Cc1ccc(O)cc1)C(=O)NC(Cc1c[nH]c2ccccc12)C(=O)NC(CCCCN)C(=O)NC(C(=O)NC(C)C(=O)NC(Cc1ccc2ccccc2c1)C(N)=O)C(C)C` (stereo not given) (H-FAYWKVA[2Nal]-NH2; configuration not given here), for which the GI50 is > 12.5 µM (inactive) in the assay on LOX IMVI; > 12.5 µM (inactive) in the assay on OVCAR-5; 28.1 µM (inactive) in the assay with SNB-75; > 12.5 µM (inactive) in the assay on SW-620; > 12.5 µM (inactive) in the assay with MDA-MB-435; > 12.5 µM (inactive) in the assay with HT-29. Besides, the GI50 in the assay with M14, in the assay on ACHN, in the assay on CAKI-1, in the assay on MDA-MB-231, with UO-31 and in the assay with OVCAR-4 was > 12.5 µM (inactive) each time. For the same compound, the GI50 in the assay with HCT-116 is > 12.5 µM (inactive); with SF-268 it was > 12.5 µM (inactive); in the assay on SK-MEL-5, > 12.5 µM (inactive); in the assay with SF-295, > 12.5 µM (inactive); in the assay with SNB-19, 24.6 µM (inactive); in the assay on HCC 2998 it was > 12.5 µM (inactive). For the same compound, the GI50 in the assay on NCI-H226 and in the assay on NCI-H460 was > 12.5 µM (inactive) each time.

`CC[C@]12CCCN3CCc4c(n(c5ccccc45)C(=O)C1)[C@@H]32` [VINBURNINE]: the GI50 with LOX IMVI is 10 µM (inactive); in the assay with OVCAR-5 it was 34.6 µM (inactive); with SNB-75, 13.3 µM (inactive); in the assay on SW-620 it was 3.94 µM (inactive); in the assay on MDA-MB-435 it was 1.26 µM (inactive); in the assay on HT-29, 3.56 µM (inactive). Moreover, the GI50 in the assay on M14 is 3.97 µM (inactive); in the assay on ACHN it was 32.4 µM (inactive); in the assay with CAKI-1, > 100 µM (inactive); in the assay with MDA-MB-231 it was 9.35 µM (inactive); with UO-31, 4.75 µM (inactive); in the assay on OVCAR-4 it was 18.2 µM (inactive). Besides, the GI50 in the assay with HCT-116 was 3.86 µM (inactive); with SF-268, 11.6 µM (inactive); in the assay on SK-MEL-5, 5.05 µM (inactive); in the assay on SF-295 it was 3.58 µM (inactive); in the assay on SNB-19, 14.5 µM (inactive); with HCC 2998 it was 3.92 µM (inactive). The GI50 in the assay with NCI-H226 was > 83.8 µM (inactive); in the assay with NCI-H460 it was 3.72 µM (inactive).
